Measurements taken from ChEMBL document CHEMBL1201862, “PubChem BioAssay data set” (2004).
Counter-ions that a name gives are not always drawn. The source made the active and inactive calls. Rule as the data show it, for most assays here: actives have a measured EC50 and inactives only a lower limit.

Columns and labels:
[1] = Trypanosoma cruzi growth suppression in host cells – NIH3T3 host cells, beta-gal luminescence, confirmation (AID 2044); format: functional, cell-based;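 also: intracellular parasites grown in NIH/3T3 mouse fibroblasts as host cells; luminescent beta-galactosidase reporter signal from transgenic T. cruzi replicating inside host cells; inhibitors lower the luminescence signal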
[2] = NIH3T3 cell viability loss – ATP luminescence, mouse fibroblasts, counter-screen, dose response (AID 2010); format: functional, cell-based;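 also: cells exposed to compound for about 90 hours before reading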
[3] = molecular target: Cytochrome P450 3A4 (Homo sapiens, UniProt P08684);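 also: CYP3A4 tested as one member of a cytochrome P450 panel screen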
[4] = Luminescence Cell-Based Dose Response HTS to Identify Activators of Luciferase Translation or Activity in H4 […] Cells. [Related pubchem assays: 1829 (Project Summary), 1814 (Primary HTS)]; format: functional
[5] = Luminescence Cell-Based Dose Confirmation HTS to Identify Activators of 5'UTR Stem-Loop Driven Alpha-Synuclein mRNA Translation in H4 Neuroglioblastoma Cells. [Related pubchem assays: 1829 (Project Summary), 1814 (Primary HTS)]; format: functional
[6] = system: H4; assay: Luminescence Cell-Based Dose Response HTS to Identify Activators of 5'UTR Stem-Loop Driven Prion Protein mRNA Translation in H4 Neuroglioblastoma Cells. [Related pubchem assays: 1829 (Project Summary), 1814 (Primary HTS)]; format: functional; conditions: Homo sapiens
[7] = molecular target: T1, Cytochrome P450 1A2 (Homo sapiens, UniProt P05177);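 also: PubChem cytochrome P450 panel assay, CYP1A2 panel member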
T1 sequence (P05177 whole entry): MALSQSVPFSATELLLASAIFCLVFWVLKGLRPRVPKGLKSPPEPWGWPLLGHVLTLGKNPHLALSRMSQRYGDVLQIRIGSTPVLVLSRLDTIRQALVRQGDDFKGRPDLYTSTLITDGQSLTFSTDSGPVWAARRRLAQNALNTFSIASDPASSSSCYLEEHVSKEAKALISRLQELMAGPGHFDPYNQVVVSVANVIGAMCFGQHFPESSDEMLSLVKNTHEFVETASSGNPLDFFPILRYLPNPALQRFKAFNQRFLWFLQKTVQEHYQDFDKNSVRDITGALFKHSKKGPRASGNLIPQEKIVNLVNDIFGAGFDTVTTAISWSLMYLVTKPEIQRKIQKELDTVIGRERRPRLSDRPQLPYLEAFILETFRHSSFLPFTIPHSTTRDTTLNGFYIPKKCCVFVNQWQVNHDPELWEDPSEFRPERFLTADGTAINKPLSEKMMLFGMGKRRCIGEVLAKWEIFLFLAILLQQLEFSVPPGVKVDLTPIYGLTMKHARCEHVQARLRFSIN

[8] = molecular target: T2, Corticotropin-releasing factor receptor 2/Corticotropin-releasing factor-binding protein (Homo sapiens, UniProt P24387+Q13324); assay: activators of CRF receptor 2 with binding protein – uHTS hits, confirmation (AID 602473); format: functional; conditions: read-out: EC50_Mean
T2 sequence (Q13324 whole entry): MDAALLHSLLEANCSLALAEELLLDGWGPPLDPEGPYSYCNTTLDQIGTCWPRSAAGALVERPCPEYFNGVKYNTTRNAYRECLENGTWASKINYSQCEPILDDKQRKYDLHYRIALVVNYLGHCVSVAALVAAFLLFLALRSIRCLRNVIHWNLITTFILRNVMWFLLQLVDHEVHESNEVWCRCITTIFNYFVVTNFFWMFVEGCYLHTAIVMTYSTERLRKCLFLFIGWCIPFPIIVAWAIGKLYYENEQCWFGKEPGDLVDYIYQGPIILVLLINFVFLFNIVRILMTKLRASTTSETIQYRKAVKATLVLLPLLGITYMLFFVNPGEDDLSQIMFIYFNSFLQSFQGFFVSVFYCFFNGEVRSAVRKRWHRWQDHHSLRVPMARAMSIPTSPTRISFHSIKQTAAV
T2 sequence (P24387 whole entry): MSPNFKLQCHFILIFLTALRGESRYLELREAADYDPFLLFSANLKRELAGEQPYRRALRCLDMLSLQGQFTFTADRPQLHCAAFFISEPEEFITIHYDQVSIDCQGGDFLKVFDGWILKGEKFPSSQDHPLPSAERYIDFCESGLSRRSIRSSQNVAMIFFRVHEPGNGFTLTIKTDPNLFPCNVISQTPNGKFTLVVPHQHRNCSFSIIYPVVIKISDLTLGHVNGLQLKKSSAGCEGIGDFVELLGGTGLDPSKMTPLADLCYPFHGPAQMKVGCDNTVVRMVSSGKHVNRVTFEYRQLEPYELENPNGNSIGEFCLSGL

Cytochrome P450 3A4, sequence (P08684 whole entry): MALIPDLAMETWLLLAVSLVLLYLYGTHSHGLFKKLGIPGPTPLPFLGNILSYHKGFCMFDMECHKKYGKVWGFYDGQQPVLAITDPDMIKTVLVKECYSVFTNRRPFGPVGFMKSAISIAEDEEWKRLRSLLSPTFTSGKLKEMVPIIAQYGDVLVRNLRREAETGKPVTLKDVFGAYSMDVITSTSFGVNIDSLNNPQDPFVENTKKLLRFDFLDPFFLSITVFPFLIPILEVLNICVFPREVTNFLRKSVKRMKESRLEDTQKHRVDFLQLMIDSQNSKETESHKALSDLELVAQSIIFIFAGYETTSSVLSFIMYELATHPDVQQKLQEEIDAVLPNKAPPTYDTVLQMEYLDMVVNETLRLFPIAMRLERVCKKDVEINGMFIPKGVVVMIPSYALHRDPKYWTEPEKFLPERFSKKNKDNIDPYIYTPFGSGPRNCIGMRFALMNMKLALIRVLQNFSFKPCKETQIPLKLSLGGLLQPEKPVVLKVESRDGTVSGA

## COc1cc2c(cc1OC)[C@@H]1Cc3ccc(OC)c(OC)c3CN1CC2
[1]
  EC50: > 60 µM (not active)
[2]
  EC50: > 60 µM (not active)

## CN(C)c1ncc2nc(-c3ccc(F)cc3)c(=O)n(Cc3cccs3)c2n1
[3]
  AC50: 25.1 µM (inconclusive)

## CS(=O)(=O)Nc1ccc([N+](=O)[O-])cc1OC1CCCCC1 [NS-398]
[3]
  AC50: 20 µM (inconclusive)

## Cc1ccc(NC(=O)CCSc2nnc3ccccn23)cc1
[3]
  AC50: 0.891 µM (inconclusive)

## Cn1c(C(=O)OC(C(=O)NC2CCCC2)c2cccnc2)cc2sccc21 (stereo not drawn)
[1]
  EC50: 0.489 µM (active)
[2]
  EC50: > 60 µM (not active)

## CCN1CCN(c2ccc(S(=O)(=O)N3CCOCC3)cc2NC(=O)CCOc2ccccc2)CC1
[1]
  EC50: 1.26 µM (active)
[2]
  EC50: > 60 µM (not active)

## Cc1ccc2nc(NC(=O)C3CCCN(S(=O)(=O)c4c[nH]cn4)C3)sc2c1 (stereo not drawn)
[4]
  EC50: 23.4 µM (active)
[5]
  EC50: 30.4 µM (active)
[6]
  EC50: 20.8 µM (active)

## c1ccc(Cn2c(Sc3nnnn3-c3ccccc3)nnc2-c2ccccc2)cc1
[4]
  EC50: 11.9 µM (active)
[5]
  EC50: > 120 µM (not active)
[6]
  EC50: > 120 µM (not active)

## O=C(Nn1cc(C(=O)N2CCN(c3ccccc3F)CC2)c2ccccc2c1=O)c1cnccn1
[3]
  AC50: 28.2 µM (inconclusive)
[7]
  AC50: 12.6 µM (inconclusive)

## CNCCC=C1c2ccccc2CCc2ccccc21 [NORTRIPTYLINE]
[7]
  AC50: 25.1 µM (inconclusive)

## CCc1ccc(N2CC(C(=O)NC3=NCCS3)CC2=O)cc1 (stereo not drawn)
[7]
  AC50: 20 µM (inconclusive)

## Cn1c(=O)cc(OCCCC(=O)N2CCN(c3ccccc3)CC2)c2ccccc21
[3]
  AC50: 1.12 µM (inconclusive)
[7]
  AC50: 15.8 µM (inconclusive)

## O=c1c(CCc2ccccc2)nc2cnc(N3CCOCC3)nc2n1Cc1ccc(F)cc1
[7]
  AC50: 10 µM (inconclusive)

## Cc1ccc(NC(=O)CN2CCCCCC2)c(Br)c1
[4]
  EC50: 9.38 µM (active)
[6]
  EC50: 59.9 µM (active)

## CCOC(=O)c1sc2ncnc(N3CCN(CC)CC3)c2c1C
[1]
  EC50: 0.577 µM (active)
[2]
  EC50: > 60 µM (inconclusive)

## Cc1nn(CC(O)COc2ccc3c(c2)CCC3)c(C)c1Br (stereo not drawn)
[3]
  AC50: 15.8 µM (inconclusive)

## NC(=O)c1c(NC(=O)CCCn2cnc([N+](=O)[O-])n2)sc2c1CCCC2
[1]
  EC50: 0.125 µM (active)
[2]
  EC50: > 60 µM (not active)

## CC(=O)Nc1cccc(OC(=O)c2ccoc2C)c1
[8]
  EC50: 4.9 µM (active)

## C[C@@H](C(=O)O)c1ccc(-c2ccccc2)c(F)c1 [TARENFLURBIL]
[7]
  AC50: 31.6 µM (inconclusive)

## Cc1cc(C)c2c(N)c(C(=O)c3ccccc3Cl)sc2n1
[1]
  EC50: 0.1 µM (active)
[2]
  EC50: > 60 µM (not active)

## CCOC(=O)c1sc(NC(=O)c2cc(-c3ccccc3)nc3ccccc23)c(C#N)c1C
[8]
  EC50: 0.544 µM (active)

## N=C(N)NC(=O)c1nc(Cl)c(N)nc1N [AMILORIDE HYDROCHLORIDE]
[7]
  AC50: 6.31 µM (inconclusive)

## O=C(c1ccco1)N1CCn2c1nc1ccccc12
[4]
  EC50: 35.3 µM (active)
[5]
  EC50: 1.12 µM (active)
[6]
  EC50: 6.26 µM (active)

## COc1ccc(C(CNC(=O)c2cc(O)nc3ccccc23)N2CCCC2)cc1 (stereo not drawn)
[3]
  AC50: 15.8 µM (inconclusive)
[7]
  AC50: 20 µM (inconclusive)

## COc1ccc(C(=O)N2CCC3(CCCN(Cc4nccs4)C3)CC2)cc1
[3]
  AC50: 7.94 µM (inconclusive)

## Cc1ccc(S(=O)(=O)Nc2cccc(C(=O)NC3CCN(Cc4ccccc4)CC3)c2)cc1F
[1]
  EC50: 1.12 µM (active)
[2]
  EC50: > 60 µM (not active)
